Source: US11135234B2, “Effective aminoglycoside antibiotic for multidrug-resistant bacteria” (MICROBIAL CHEMISTRY RESEARCH FOUNDATION, priority 2015, dated 2021)
≈ marks a conversion by molar mass, not a printed value.

How the values were obtained:
S. aureus RN4220 = test: MIC, agar plate dilution method, S. aureus RN4220; type: cell-based, Staphylococcus aureus; settings: for minimal inhibitory concentration (MIC): S. aureus RN4220, Sensitive bacterium; for MIC: Staphylococcus aureus, RN4220, S. aureus RN4220, Sensitive bacterium, read-out: minimal inhibitory concentration (MIC)
How it was run: (§1)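 Japan Society of Chemotherapy agar dilution protocol used. MIC reported in μg/mL.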

S. aureus RN4220/pMS520 = test: MIC, agar plate dilution method, S. aureus RN4220/pMS520; type: cell-based, Staphylococcus aureus; settings: for minimal inhibitory concentration (MIC): S. aureus RN4220/pMS520, MRSA; for MIC: Staphylococcus aureus, MRSA, read-out: minimal inhibitory concentration (MIC), S. aureus RN4220/pMS520, MRSA
How it was run: as §1

S. aureus MF490 = test: MIC, agar plate dilution method, S. aureus MF490; type: cell-based, Staphylococcus aureus; settings: for minimal inhibitory concentration (MIC): S. aureus MF490, MRSA; for MIC: Staphylococcus aureus, MRSA, read-out: minimal inhibitory concentration (MIC)
How it was run: as §1

E. faecium ATCC19434 = test: MIC, agar plate dilution method, E. faecium ATCC19434; type: cell-based, Enterococcus faecium; settings: for minimal inhibitory concentration (MIC): E. faecium ATCC19434; for MIC: Enterococcus faecium, ATCC19434, E. faecium ATCC19434, read-out: minimal inhibitory concentration (MIC)
How it was run: as §1

E. coli JM109/pMW218 = test: MIC, agar plate dilution method, E. coli JM109/pMW218; type: cell-based, Escherichia coli; settings: for minimal inhibitory concentration (MIC): E. coli JM109/pMW218, Sensitive bacterium; for MIC: Escherichia coli, JM109/PMW218, E. coli JM109/pMW218, Sensitive bacterium, read-out: minimal inhibitory concentration (MIC)
How it was run: as §1

[1] = test system: K. pneumoniae ATCC BAA-1705; test: MIC, agar plate dilution method, K. pneumoniae ATCC BAA-1705; type: cell-based, Klebsiella pneumoniae; settings: for minimal inhibitory concentration (MIC): K. pneumoniae ATCC BAA-1705, KPC-producing strain; for MIC: Klebsiella pneumoniae, ATCCBAA1705, K. pneumoniae ATCC BAA-1705, KPC-producing strain, read-out: minimal inhibitory concentration (MIC)
How it was run: as §1

[2] = test system: K. pneumoniae ATCC BAA-2146; test: MIC, agar plate dilution method, K. pneumoniae ATCC BAA-2146; type: cell-based, Klebsiella pneumoniae; settings: for minimal inhibitory concentration (MIC): K. pneumoniae ATCC BAA-2146, NDM-producing strain; for MIC: Klebsiella pneumoniae, ATCCBAA2146, K. pneumoniae ATCC BAA-2146, NDM-producing strain, read-out: minimal inhibitory concentration (MIC)
How it was run: as §1

[3] = test system: A. baumannii ATCC BAA-1710; test: MIC, agar plate dilution method, A. baumannii ATCC BAA-1710; type: cell-based, Acinetobacter baumannii; settings: for minimal inhibitory concentration (MIC): A. baumannii ATCC BAA-1710, MDRA; for MIC: Acinetobacter baumannii, ATCCBAA1710, A. baumannii ATCC BAA-1710, MDRA, read-out: minimal inhibitory concentration (MIC)
How it was run: as §1

S. marcescens TH-0447 = test: MIC, agar plate dilution method, S. marcescens TH-0447; type: cell-based, Serratia marcescens; settings: for minimal inhibitory concentration (MIC): S. marcescens TH-0447, AMK-resistant; for MIC: Serratia marcescens, TH0447, S. marcescens TH-0447, AMK-resistant, read-out: minimal inhibitory concentration (MIC)
How it was run: as §1

S. marcescens GN6944 = test: MIC, agar plate dilution method, S. marcescens GN6944; type: cell-based, Serratia marcescens; settings: S. marcescens GN6944, GM-resistant; for MIC: Serratia marcescens, read-out: minimal inhibitory concentration (MIC)
How it was run: as §1

P. aeruginosa PAO1 = test: MIC, agar plate dilution method, P. aeruginosa PAO1; type: cell-based, Pseudomonas aeruginosa; settings: for minimal inhibitory concentration (MIC): P. aeruginosa PAO1, Sensitive bacterium; for MIC: Pseudomonas aeruginosa, PAO1, P. aeruginosa PAO1, Sensitive bacterium, read-out: minimal inhibitory concentration (MIC)
How it was run: as §1

P. aeruginosa PAO1/GN315 = test: MIC, agar plate dilution method, P. aeruginosa PAO1/GN315; type: cell-based, Pseudomonas aeruginosa; settings: for minimal inhibitory concentration (MIC): P. aeruginosa PAO1/GN315, AMK-resistant; for MIC: Pseudomonas aeruginosa, read-out: minimal inhibitory concentration (MIC), P. aeruginosa PAO1/GN315, AMK-resistant
How it was run: as §1

P. aeruginosa MSC17707 = test: MIC, agar plate dilution method, P. aeruginosa MSC17707; type: cell-based, Pseudomonas aeruginosa; settings: for minimal inhibitory concentration (MIC): P. aeruginosa MSC17707, AMK-resistant; for MIC: Pseudomonas aeruginosa, MSC17707, P. aeruginosa MSC17707, AMK-resistant, read-out: minimal inhibitory concentration (MIC)
How it was run: as §1

P. aeruginosa MSC01035 = test: MIC, agar plate dilution method, P. aeruginosa MSC01035; type: cell-based, Pseudomonas aeruginosa; settings: P. aeruginosa MSC01035, ABK-resistant; for MIC: Pseudomonas aeruginosa, read-out: minimal inhibitory concentration (MIC)
How it was run: as §1

`CNC1C(O[C@H]2OC(CO)[C@@H](NC(=O)[C@H](C)N)[C@H](O)C2O)O[C@H]2CC(N)[C@@H](O[C@@H]3C(N)C[C@@H](N)C(O)[C@H]3O)OC2C1O` (stereo partly drawn) [Compound V1-c, 4″-N-(L-alanyl)apramycin] was tested, and the “minimal inhibitory concentration (MIC)” value (S. aureus RN4220) was 4 µg/mL (≈ 6.55 µM), the “minimal inhibitory concentration (MIC)” value (S. aureus RN4220/pMS520) was 4 µg/mL (≈ 6.55 µM) and the “minimal inhibitory concentration (MIC)” value (S. aureus MF490) was 16 µg/mL (≈ 26.2 µM). For the same compound, the “minimal inhibitory concentration (MIC)” value (E. faecium ATCC19434) was 32 µg/mL (≈ 52.4 µM), the “minimal inhibitory concentration (MIC)” value (E. coli JM109/pMW218) was 2 µg/mL (≈ 3.28 µM) and the “minimal inhibitory concentration (MIC)” value [1] was 4 µg/mL (≈ 6.55 µM). The “minimal inhibitory concentration (MIC)” value [2] was 2 µg/mL (≈ 3.28 µM), the “minimal inhibitory concentration (MIC)” value [3] was 8 µg/mL (≈ 13.1 µM) and the “minimal inhibitory concentration (MIC)” value (S. marcescens TH-0447) was 16 µg/mL (≈ 26.2 µM). For the same compound, the “minimal inhibitory concentration (MIC)” value (S. marcescens GN6944) was 8 µg/mL (≈ 13.1 µM), the “minimal inhibitory concentration (MIC)” value (P. aeruginosa PAO1) was 16 µg/mL (≈ 26.2 µM) and the “minimal inhibitory concentration (MIC)” value (P. aeruginosa PAO1/GN315) was 8 µg/mL (≈ 13.1 µM). The “minimal inhibitory concentration (MIC)” value (P. aeruginosa MSC17707) was 8 µg/mL (≈ 13.1 µM) and the “minimal inhibitory concentration (MIC)” value (P. aeruginosa MSC01035) was 8 µg/mL (≈ 13.1 µM).
With `CNC1C(O[C@H]2OC(CO)[C@@H](N)[C@H](O)C2N)O[C@H]2CC(N)[C@@H](O[C@@H]3C(N)C[C@@H](N)C(O)[C@H]3O)OC2C1O` (stereo partly shown) [Compound G7, 2″-amino-2″-deoxy-2″,3″-diepiapramycin] the MIC (S. aureus RN4220) was 4 µg/mL (≈ 7.43 µM), the MIC (S. aureus RN4220/pMS520) was 8 µg/mL (≈ 14.9 µM) and the MIC (S. aureus MF490) was 16 µg/mL (≈ 29.7 µM). The MIC (E. faecium ATCC19434) was 16 µg/mL (≈ 29.7 µM), the MIC (E. coli JM109/pMW218) was 1 µg/mL (≈ 1.86 µM) and the MIC [1] was 2 µg/mL (≈ 3.71 µM). The MIC [2] was 4 µg/mL (≈ 7.43 µM), the MIC [3] was 8 µg/mL (≈ 14.9 µM) and the MIC (S. marcescens TH-0447) was 8 µg/mL (≈ 14.9 µM). For the same compound, the MIC (S. marcescens GN6944) was 8 µg/mL (≈ 14.9 µM), the MIC (P. aeruginosa PAO1) was 8 µg/mL (≈ 14.9 µM) and the MIC (P. aeruginosa PAO1/GN315) was 8 µg/mL (≈ 14.9 µM). For the same compound, the MIC (P. aeruginosa MSC17707) was 8 µg/mL (≈ 14.9 µM) and the MIC (P. aeruginosa MSC01035) was 16 µg/mL (≈ 29.7 µM).
With `CNC1C(O[C@H]2OC(CO)[C@@H](NC(=O)[C@@H](O)CN)[C@H](O)C2O)O[C@H]2C[C@H](N)[C@@H](O[C@@H]3C(N)C[C@@H](N)C[C@H]3O)OC2C1O` (stereo partly drawn) [Compound V1-r, 6-deoxy-5-epi-4″-N-(L-isoseryl)apramycin] the MIC (S. aureus RN4220) was 1 µg/mL (≈ 1.64 µM), the MIC (S. aureus RN4220/pMS520) was 1 µg/mL (≈ 1.64 µM) and the MIC (S. aureus MF490) was 4 µg/mL (≈ 6.55 µM). It also gave an MIC (E. faecium ATCC19434) of 8 µg/mL (≈ 13.1 µM), an MIC (E. coli JM109/pMW218) of 0.5 µg/mL (≈ 0.819 µM) and an MIC [1] of 1 µg/mL (≈ 1.64 µM). For the same compound, the MIC [2] was 1 µg/mL (≈ 1.64 µM), the MIC [3] was 4 µg/mL (≈ 6.55 µM) and the MIC (S. marcescens TH-0447) was 8 µg/mL (≈ 13.1 µM). The MIC (S. marcescens GN6944) was 8 µg/mL (≈ 13.1 µM), the MIC (P. aeruginosa PAO1) was 2 µg/mL (≈ 3.28 µM) and the MIC (P. aeruginosa PAO1/GN315) was 2 µg/mL (≈ 3.28 µM). It also gave an MIC (P. aeruginosa MSC17707) of 2 µg/mL (≈ 3.28 µM) and an MIC (P. aeruginosa MSC01035) of 4 µg/mL (≈ 6.55 µM).
For `CNC1C(OC2OC(CO)C(NC(=O)C(N)CO)C(O)C2O)OC2CC(N)C(OC3C(N)CC(N)C(O)C3O)OC2C1O` [Compound V1-l, 5-epi-4″-N-(L-seryl)apramycin], the “minimal inhibitory concentration (MIC)” value (S. aureus RN4220) was 4 µg/mL (≈ 6.38 µM), the “minimal inhibitory concentration (MIC)” value (S. aureus RN4220/pMS520) was 4 µg/mL (≈ 6.38 µM) and the “minimal inhibitory concentration (MIC)” value (S. aureus MF490) was 8 µg/mL (≈ 12.8 µM). The “minimal inhibitory concentration (MIC)” value (E. faecium ATCC19434) was 32 µg/mL (≈ 51.1 µM), the “minimal inhibitory concentration (MIC)” value (E. coli JM109/pMW218) was 1 µg/mL (≈ 1.6 µM) and the “minimal inhibitory concentration (MIC)” value [1] was 1 µg/mL (≈ 1.6 µM). The “minimal inhibitory concentration (MIC)” value [2] was 1 µg/mL (≈ 1.6 µM), the “minimal inhibitory concentration (MIC)” value [3] was 8 µg/mL (≈ 12.8 µM) and the “minimal inhibitory concentration (MIC)” value (S. marcescens TH-0447) was 8 µg/mL (≈ 12.8 µM). For the same compound, the “minimal inhibitory concentration (MIC)” value (S. marcescens GN6944) was 8 µg/mL (≈ 12.8 µM), the “minimal inhibitory concentration (MIC)” value (P. aeruginosa PAO1) was 4 µg/mL (≈ 6.38 µM) and the “minimal inhibitory concentration (MIC)” value (P. aeruginosa PAO1/GN315) was 4 µg/mL (≈ 6.38 µM). For the same compound, the “minimal inhibitory concentration (MIC)” value (P. aeruginosa MSC17707) was 4 µg/mL (≈ 6.38 µM) and the “minimal inhibitory concentration (MIC)” value (P. aeruginosa MSC01035) was 8 µg/mL (≈ 12.8 µM).
Work on `CNC1C(O[C@H]2OC(CO)[C@@H](NCCN)[C@H](O)C2O)O[C@H]2CC(N)[C@@H](O[C@@H]3C(N)C[C@@H](N)C(O)[C@H]3O)OC2C1O` (stereo partly shown) [Compound S1-g, 4″-N-(2-aminoethyl)-5-epiapramycin] yielded an MIC (S. aureus RN4220) of 4 µg/mL (≈ 6.87 µM), an MIC (S. aureus RN4220/pMS520) of 2 µg/mL (≈ 3.43 µM) and an MIC (S. aureus MF490) of 8 µg/mL (≈ 13.7 µM). For the same compound, the MIC (E. faecium ATCC19434) was 16 µg/mL (≈ 27.5 µM), the MIC (E. coli JM109/pMW218) was 1 µg/mL (≈ 1.72 µM) and the MIC [1] was 2 µg/mL (≈ 3.43 µM). For the same compound, the MIC [2] was 2 µg/mL (≈ 3.43 µM), the MIC [3] was 4 µg/mL (≈ 6.87 µM) and the MIC (S. marcescens TH-0447) was 8 µg/mL (≈ 13.7 µM). The MIC (S. marcescens GN6944) was 8 µg/mL (≈ 13.7 µM), the MIC (P. aeruginosa PAO1) was 4 µg/mL (≈ 6.87 µM) and the MIC (P. aeruginosa PAO1/GN315) was 4 µg/mL (≈ 6.87 µM). For the same compound, the MIC (P. aeruginosa MSC17707) was 4 µg/mL (≈ 6.87 µM) and the MIC (P. aeruginosa MSC01035) was 8 µg/mL (≈ 13.7 µM).
